Data published in patent US20220281848A1, “PYRAZOLE-SUBSTITUTED PYRROLIDINONES AS HERBICIDES” (FMC Corporation, priority 2019, published 2022).

What was measured:
Type in all cases: in vivo
Details in all cases: after 13 d
corn (Zea mays, ZEAMX) [1] = experiment: Test A pre-emergence, corn
Summary of the method: (§1)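 Pots of soil sown, sprayed at day 1 post-sowing: test compound at 15.625/62.5/250 g/ha in acetone:water 1:1 + 0.5% Tween 20. Glasshouse 24/16° C., 14 h light, 65% RH, watering twice daily. Readout: % damage after 13 d.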

[2] = system: giant foxtail (Setaria faberi, SETFA); experiment: Test A pre-emergence, giant foxtail
Summary of the method: as §1

[3] = system: ivy-leaved morning glory (Ipomoea hederacea, IPOHE); experiment: Test A pre-emergence, ivy-leaved morning glory
Summary of the method: as §1

[4] = system: velvetleaf (Abutilon theophrasti, ABUTH); experiment: Test A post-emergence, velvetleaf
Summary of the method: (§2)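 Plants were grown 8 d in a glasshouse (24/16° C day/night, 14 h light, 65% humidity), then sprayed post-emergence at 15.625, 62.5 or 250 g/ha in acetone/water (50:50) with 0.5% Tween 20. Damage was scored visually after 13 d (0 = none, 100 = total).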

corn (Zea mays, ZEAMX) [5] = experiment: Test A post-emergence, corn
Summary of the method: as §2

[6] = system: redroot pigweed (Amaranthus retroflexus, AMARE); experiment: Test A pre-emergence, redroot pigweed
Summary of the method: as §1

[7] = system: giant foxtail (Setaria faberi, SETFA); experiment: Test A post-emergence, giant foxtail
Summary of the method: as §2

[8] = system: redroot pigweed (Amaranthus retroflexus, AMARE); experiment: Test A post-emergence, redroot pigweed
Summary of the method: as §2

[9] = system: ivy-leaved morning glory (Ipomoea hederacea, IPOHE); experiment: Test A post-emergence, ivy-leaved morning glory
Summary of the method: as §2

[10] = system: barnyardgrass (Echinochloa crus-galli, ECHCG); experiment: Test A post-emergence, barnyardgrass
Summary of the method: as §2

[11] = system: velvetleaf (Abutilon theophrasti, ABUTH); experiment: Test A pre-emergence, velvetleaf
Summary of the method: as §1

[12] = system: barnyardgrass (Echinochloa crus-galli, ECHCG); experiment: Test A pre-emergence, barnyardgrass
Summary of the method: as §1

CCc1ccccc1NC(=O)C1C(=O)N(C)CC1c1cc(C(F)(F)F)n(C)n1 (racemic) [Compound 20]
damage to plant (100=total damage; 0=no damage) ZEAMX (corn (Zea mays, ZEAMX) [1]; Pre-Emergence at 15.625 g/ha): 0
damage to plant (100=total damage; 0=no damage) ZEAMX (corn (Zea mays, ZEAMX) [1]; Pre-Emergence at 62.5 g/ha): 0
damage to plant (100=total damage; 0=no damage) ZEAMX (corn (Zea mays, ZEAMX) [1]; Pre-Emergence at 250 g/ha): 20
damage to plant (100=total damage; 0=no damage) SETFA ([2]; Pre-Emergence at 15.625 g/ha): 50
damage to plant (100=total damage; 0=no damage) SETFA ([2]; Pre-Emergence at 62.5 g/ha): 80
damage to plant (100=total damage; 0=no damage) SETFA ([2]; Pre-Emergence at 250 g/ha): 90
damage to plant (100=total damage; 0=no damage) IPOHE ([3]; Pre-Emergence at 15.625 g/ha): 0
damage to plant (100=total damage; 0=no damage) IPOHE ([3]; Pre-Emergence at 62.5 g/ha): 0
damage to plant (100=total damage; 0=no damage) IPOHE ([3]; Pre-Emergence at 250 g/ha): 0
damage to plant (100=total damage; 0=no damage) ABUTH ([4]; Post-Emergence at 15.625 g/ha): 0
damage to plant (100=total damage; 0=no damage) ABUTH ([4]; Post-Emergence at 62.5 g/ha): 0
damage to plant (100=total damage; 0=no damage) ABUTH ([4]; Post-Emergence at 250 g/ha): 0
damage to plant (100=total damage; 0=no damage) ZEAMX (corn (Zea mays, ZEAMX) [5]; Post-Emergence at 15.625 g/ha): 0
damage to plant (100=total damage; 0=no damage) ZEAMX (corn (Zea mays, ZEAMX) [5]; Post-Emergence at 62.5 g/ha): 0
damage to plant (100=total damage; 0=no damage) ZEAMX (corn (Zea mays, ZEAMX) [5]; Post-Emergence at 250 g/ha): 0
damage to plant (100=total damage; 0=no damage) AMARE ([6]; Pre-Emergence at 15.625 g/ha): 50
damage to plant (100=total damage; 0=no damage) AMARE ([6]; Pre-Emergence at 62.5 g/ha): 60
damage to plant (100=total damage; 0=no damage) AMARE ([6]; Pre-Emergence at 250 g/ha): 70
damage to plant (100=total damage; 0=no damage) SETFA ([7]; Post-Emergence at 15.625 g/ha): 30
damage to plant (100=total damage; 0=no damage) SETFA ([7]; Post-Emergence at 62.5 g/ha): 70
damage to plant (100=total damage; 0=no damage) SETFA ([7]; Post-Emergence at 250 g/ha): 80
damage to plant (100=total damage; 0=no damage) AMARE ([8]; Post-Emergence at 15.625 g/ha): 10
damage to plant (100=total damage; 0=no damage) AMARE ([8]; Post-Emergence at 62.5 g/ha): 10
damage to plant (100=total damage; 0=no damage) AMARE ([8]; Post-Emergence at 250 g/ha): 20
damage to plant (100=total damage; 0=no damage) IPOHE ([9]; Post-Emergence at 15.625 g/ha): 0
damage to plant (100=total damage; 0=no damage) IPOHE ([9]; Post-Emergence at 62.5 g/ha): 0
damage to plant (100=total damage; 0=no damage) IPOHE ([9]; Post-Emergence at 250 g/ha): 0
damage to plant (100=total damage; 0=no damage) ECHCG ([10]; Post-Emergence at 15.625 g/ha): 20
damage to plant (100=total damage; 0=no damage) ECHCG ([10]; Post-Emergence at 62.5 g/ha): 60
damage to plant (100=total damage; 0=no damage) ECHCG ([10]; Post-Emergence at 250 g/ha): 80
damage to plant (100=total damage; 0=no damage) ABUTH ([11]; Pre-Emergence at 15.625 g/ha): 0
damage to plant (100=total damage; 0=no damage) ABUTH ([11]; Pre-Emergence at 62.5 g/ha): 0
damage to plant (100=total damage; 0=no damage) ABUTH ([11]; Pre-Emergence at 250 g/ha): 0
damage to plant (100=total damage; 0=no damage) ECHCG ([12]; Pre-Emergence at 15.625 g/ha): 50
damage to plant (100=total damage; 0=no damage) ECHCG ([12]; Pre-Emergence at 62.5 g/ha): 80
damage to plant (100=total damage; 0=no damage) ECHCG ([12]; Pre-Emergence at 250 g/ha): 90

Cn1nc([C@H]2CNC(=O)[C@@H]2C(=O)Nc2cccc(F)n2)cc1C(C)(C)C [Compound 1]
damage to plant (100=total damage; 0=no damage) ZEAMX (corn (Zea mays, ZEAMX) [1]; Pre-Emergence at 15.625 g/ha): 0
damage to plant (100=total damage; 0=no damage) ZEAMX (corn (Zea mays, ZEAMX) [1]; Pre-Emergence at 62.5 g/ha): 0
damage to plant (100=total damage; 0=no damage) SETFA ([2]; Pre-Emergence at 15.625 g/ha): 0
damage to plant (100=total damage; 0=no damage) SETFA ([2]; Pre-Emergence at 62.5 g/ha): 0
damage to plant (100=total damage; 0=no damage) IPOHE ([3]; Pre-Emergence at 15.625 g/ha): 0
damage to plant (100=total damage; 0=no damage) IPOHE ([3]; Pre-Emergence at 62.5 g/ha): 0
damage to plant (100=total damage; 0=no damage) ABUTH ([4]; Post-Emergence at 15.625 g/ha): 0
damage to plant (100=total damage; 0=no damage) ABUTH ([4]; Post-Emergence at 62.5 g/ha): 0
damage to plant (100=total damage; 0=no damage) ZEAMX (corn (Zea mays, ZEAMX) [5]; Post-Emergence at 15.625 g/ha): 0
damage to plant (100=total damage; 0=no damage) ZEAMX (corn (Zea mays, ZEAMX) [5]; Post-Emergence at 62.5 g/ha): 0
damage to plant (100=total damage; 0=no damage) AMARE ([6]; Pre-Emergence at 15.625 g/ha): 0
damage to plant (100=total damage; 0=no damage) AMARE ([6]; Pre-Emergence at 62.5 g/ha): 0
damage to plant (100=total damage; 0=no damage) SETFA ([7]; Post-Emergence at 15.625 g/ha): 0
damage to plant (100=total damage; 0=no damage) SETFA ([7]; Post-Emergence at 62.5 g/ha): 0
damage to plant (100=total damage; 0=no damage) AMARE ([8]; Post-Emergence at 15.625 g/ha): 0
damage to plant (100=total damage; 0=no damage) AMARE ([8]; Post-Emergence at 62.5 g/ha): 0
damage to plant (100=total damage; 0=no damage) IPOHE ([9]; Post-Emergence at 15.625 g/ha): 0
damage to plant (100=total damage; 0=no damage) IPOHE ([9]; Post-Emergence at 62.5 g/ha): 0
damage to plant (100=total damage; 0=no damage) ECHCG ([10]; Post-Emergence at 15.625 g/ha): 0
damage to plant (100=total damage; 0=no damage) ECHCG ([10]; Post-Emergence at 62.5 g/ha): 0
damage to plant (100=total damage; 0=no damage) ABUTH ([11]; Pre-Emergence at 15.625 g/ha): 0
damage to plant (100=total damage; 0=no damage) ABUTH ([11]; Pre-Emergence at 62.5 g/ha): 0
damage to plant (100=total damage; 0=no damage) ECHCG ([12]; Pre-Emergence at 15.625 g/ha): 0
damage to plant (100=total damage; 0=no damage) ECHCG ([12]; Pre-Emergence at 62.5 g/ha): 0
